Laboratory results taken from patent publication US6914045B2, “Glycopeptide antibiotics” (Wyeth Holdings Corporation, priority 2001, dated 2005).

What was measured:
Test in all cases: in vitro antibacterial evaluation, MIC by broth dilution
Format in all cases: cell-based
[1] = test system: Escherichia coli; settings: 18 hours at 35° C.
[2] = test system: Staphylococcus sp.; settings: broth dilution, 18 hours at 35° C.; for MIC Staphylococcus aureus (GC 1131): strain GC 1131; for MIC Staphylococcus aureus (ATCC 29213): strain ATCC 29213; for MIC Staphylococcus aureus (GC 3051): strain GC 3051; for MIC Staphylococcus aureus (GC 3053): strain GC 3053; for MIC Staphylococcus aureus (GC 4541): strain GC 4541; for MIC Staphylococcus aureus (GC 4542): strain GC 4542; for MIC Staphylococcus aureus-SMITH (GC 4543): strain GC 4543; for MIC Staphylococcus aureus (GC 4544): strain GC 4544; for MIC Staphylococcus aureus (GC 4545): strain GC 4545; for MIC Staphylococcus haemolyticus (GC 4546): strain GC 4546; for MIC Coagulase Negative Staphylococcus (GC 4547): strain GC 4547; for MIC Coagulase Negative Staphylococcus (GC 4548): strain GC 4548; for MIC Coagulase Negative Staphylococcus (GC 4549): strain GC 4549; for MIC Coagulase Negative Staphylococcus (GC 4551): strain GC 4551
In short: (§1)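 MIC = lowest antibiotic concentration preventing visible growth; inoculum 5×10^5 CFU/mL; drug range 64-0.06 μg/mL; Muller-Hinton II […]; NCCLS M7-A2 guidance.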

[3] = test system: Enterococcus sp.; settings: broth dilution, 18 hours at 35° C.
In short: as §1

[4] = test system: Streptococcus sp.; settings: broth dilution, 18 hours at 35° C.
In short: as §1

N=C1NCC(C(O)C2NC(=O)C(Cc3ccc(OC4OC(CO)C(OC5OC6COC(Cc7ccccc7)OC6C(O)C5O)C(O)C4O)cc3)NC(=O)C(CC3CCCCC3)NC(=O)CNC(=O)C(CO)NC(=O)C(C(O)C3CNC(=N)N3C3OC(CO)C(O)C(O)C3O)NC2=O)N1 (stereo not drawn) [Example 200]
32 µg/mL: MIC Escherichia coli (ATCC 25922) [1] | MIC Escherichia coli (GC 4559) [1]
0.12 µg/mL: MIC Streptococcus agalactiae (GC 4564) [4] | MIC Streptococcus agalactiae (GC 4564) ([4]; inoculum 5×10^5 CFU/mL, strain GC 4564)
<0.06 µg/mL: MIC Streptococcus pneumoniae (ATCC 6301) [4] | MIC Streptococcus pneumoniae (GC 1894) [4] | MIC Streptococcus pneumoniae (GC 4565) [4] | MIC Streptococcus pyogenes (GC 4563) [4] | MIC Streptococcus pneumoniae (ATCC 6301) ([4]; inoculum 5×10^5 CFU/mL, strain ATCC 6301) | MIC Streptococcus pneumoniae (GC 1894) ([4]; inoculum 5×10^5 CFU/mL, strain GC 1894) | MIC Streptococcus pyogenes (GC 4563) ([4]; inoculum 5×10^5 CFU/mL, strain GC 4563) | MIC Streptococcus pneumoniae (GC 4565) ([4]; inoculum 5×10^5 CFU/mL, strain GC 4565)
4 µg/mL: MIC Enterococcus avium (GC 4558) [3] | MIC Enterococcus faecalis (ATCC 29212) [3] | MIC Enterococcus faecalis (GC 2691) [3] | MIC Enterococcus faecalis (GC 4553) [3] | MIC Enterococcus faecalis (GC 4554) [3] | MIC Enterococcus faecium (GC 2243) [3] | MIC Enterococcus faecium (GC 4556) [3] | MIC Enterococcus faecalis (ATCC 29212) ([3]; inoculum 5×10^5 CFU/mL, strain ATCC 29212) | MIC Enterococcus faecium (GC 2243) ([3]; inoculum 5×10^5 CFU/mL, strain GC 2243) | MIC Enterococcus faecalis (GC 2691) ([3]; inoculum 5×10^5 CFU/mL, strain GC 2691) | MIC Enterococcus faecalis (GC 4553) ([3]; inoculum 5×10^5 CFU/mL, strain GC 4553) | MIC Enterococcus faecalis (GC 4554) ([3]; inoculum 5×10^5 CFU/mL, strain GC 4554) | MIC Enterococcus faecium (GC 4556) ([3]; inoculum 5×10^5 CFU/mL, strain GC 4556) | MIC Enterococcus avium (GC 4558) ([3]; inoculum 5×10^5 CFU/mL, strain GC 4558)
1 µg/mL: MIC Escherichia coli (GC 4560) [1] | MIC Staphylococcus aureus (ATCC 29213) [2] | MIC Staphylococcus aureus (GC 3051) [2] | MIC Staphylococcus aureus (GC 4541) [2] | MIC Staphylococcus aureus (GC 4542) [2] | MIC Staphylococcus aureus-SMITH (GC 4543) [2] | MIC Staphylococcus aureus (GC 4545) [2] | MIC Staphylococcus haemolyticus (GC 4546) [2] | MIC Coagulase Negative Staphylococcus (GC 4548) [2] | MIC Coagulase Negative Staphylococcus (GC 4549) [2]
2 µg/mL: MIC Staphylococcus aureus (GC 1131) ([2]; inoculum 5×10^5 CFU/mL) | MIC Staphylococcus aureus (GC 1131) [2] | MIC Staphylococcus aureus (GC 3053) [2] | MIC Staphylococcus aureus (GC 4544) [2] | MIC Coagulase Negative Staphylococcus (GC 4547) [2] | MIC Coagulase Negative Staphylococcus (GC 4551) [2] | MIC Enterococcus faecalis (GC 3059) [3] | MIC Enterococcus faecalis (GC 4552) [3] | MIC Enterococcus faecalis (GC 6189) [3] | MIC Enterococcus faecium (GC 4557) [3] | MIC Enterococcus faecalis (GC 3059) ([3]; inoculum 5×10^5 CFU/mL, strain GC 3059) | MIC Enterococcus faecalis (GC 4552) ([3]; inoculum 5×10^5 CFU/mL, strain GC 4552) | MIC Enterococcus faecium (GC 4557) ([3]; inoculum 5×10^5 CFU/mL, strain GC 4557) | MIC Enterococcus faecalis (GC 6189) ([3]; inoculum 5×10^5 CFU/mL, strain GC 6189)
0.5 µg/mL: MIC Enterococcus faecalis (GC 2242) [3] | MIC Enterococcus faecalis (GC 2242) ([3]; inoculum 5×10^5 CFU/mL, strain GC 2242)

CC(c1ccccc1)C1NC(=O)CNC(=O)C(CO)NC(=O)C(C(O)C2CNC(=N)N2C2OC(CO)C(O)C(O)C2O)NC(=O)C(C(O)C2CNC(=N)N2)NC(=O)C(Cc2ccc3oc(-c4cccc([N+](=O)[O-])c4)nc3c2)NC1=O (stereo not drawn) [Example 26, Cyclo[3-[2-(3-nitrophenyl)-1,3-benzoxazol-5-yl)alanyl-3-(2-iminoimidazolidin-4-yl)seryl-3-(3-hexopyranosyl-2-iminoimidazolidin-4-yl)serylserylglycyl-β-methylphenylalanyl]]
4 µg/mL: MIC Staphylococcus haemolyticus (GC 4546) [2] | MIC Coagulase Negative Staphylococcus (GC 4549) [2] | MIC Coagulase Negative Staphylococcus (GC 6257) ([2]; strain GC 6257)
16 µg/mL: MIC Escherichia coli (GC 4560) ([1]; strain GC 4560, broth dilution) | MIC Staphylococcus aureus (GC 1131) [2] | MIC Staphylococcus aureus (GC 3051) [2] | MIC Staphylococcus aureus (GC 3053) [2] | MIC Staphylococcus aureus (GC 4542) [2] | MIC Staphylococcus aureus-SMITH (GC 4543) [2] | MIC Staphylococcus aureus (GC 4544) [2] | MIC Coagulase Negative Staphylococcus (GC 4548) [2] | MIC Coagulase Negative Staphylococcus (GC 4551) [2] | MIC Streptococcus pneumoniae (GC 1894) ([4]; strain GC 1894) | MIC Streptococcus agalactiae (GC 4564) ([4]; strain GC 4564)
8 µg/mL: MIC Coagulase Negative Staphylococcus (GC 4547) [2] | MIC Enterococcus faecium (GC 4557) ([3]; strain GC 4557) | MIC Streptococcus pyogenes (GC 4563) ([4]; strain GC 4563)
32 µg/mL: MIC Staphylococcus aureus (ATCC 29213) [2] | MIC Staphylococcus aureus (GC 4541) [2] | MIC Staphylococcus aureus (GC 4545) [2] | MIC Enterococcus faecalis (ATCC 29212) ([3]; strain ATCC 29212) | MIC Enterococcus faecium (GC 2243) ([3]; strain GC 2243) | MIC Enterococcus faecalis (GC 2691) ([3]; strain GC 2691) | MIC Enterococcus faecalis (GC 4553) ([3]; strain GC 4553) | MIC Enterococcus avium (GC 4558) ([3]; strain GC 4558) | MIC Enterococcus faecalis (GC 6189) ([3]; strain GC 6189) | MIC Streptococcus pneumoniae (ATCC 6301) ([4]; strain ATCC 6301) | MIC Streptococcus pneumoniae (GC 4565) ([4]; strain GC 4565)
64 µg/mL: MIC Escherichia coli (ATCC 25922) ([1]; strain ATCC 25922, broth dilution) | MIC Escherichia coli (GC 4559) ([1]; strain GC 4559, broth dilution) | MIC Enterococcus faecalis (GC 2242) ([3]; strain GC 2242) | MIC Enterococcus faecalis (GC 3059) ([3]; strain GC 3059) | MIC Enterococcus faecalis (GC 4552) ([3]; strain GC 4552) | MIC Enterococcus faecalis (GC 4554) ([3]; strain GC 4554) | MIC Enterococcus faecium (GC 4556) ([3]; strain GC 4556)
